Series [1] concerns S. epidermidis(JCM2414). Description: Antimicrobial test, growth inhibition minimum concentration. Type of series: cell-based, Staphylococcus epidemidis. The settings on record: Table 2. As to the method: (§1) 0.5 mL of a previously sterilized medium (brand name: Brain Heart Infusion Liquid Medium supplied by Nihon Pharmaceutical Co., Ltd.) was added into a 96-well deep type microplate, and 0.5 mL of ricinoleic acid monoglyceride or diglycerine ricinoleic acid monoester of the present invention (synthesized in “1. Synthesis Example of ricinoleic acid monoglyceride” and “2. Synthesis Example of diglycerine ricinoleic acid monoester,” respectively) was added thereto and serially prepared so that the final concentration in the medium was 3 ppm, 6 ppm, 12 ppm, 25 ppm, 50 ppm, 100 ppm, 200 ppm and 400 ppm. 0.1 mL of each cultured bacterial medium of Corynebacterium xerosis (JCM 1971) or Staphylococcus aureus (JCM 2151) at approximately 1×10^8CFU/mL was added to this sample solution, stirred, and then cultured at 37° C. under an aerobic condition for 24 hours. The antimicrobial effect was visually determined, and compared with test plots in which the microorganism had not been added. The test plot in which no turbidity due to growth of the microorganism was observed was determined as the test plot having the antimicrobial effect, and the lowest concentration required for inhibiting the growth of the microorganism (hereinafter referred to as a “growth inhibition minimum concentration”) was measured. As a Comparative Example, the growth inhibition minimum concentration of 4-isopropyl-3-methylphenol known as the antimicrobial agent having a broad antimicrobial spectrum was measured in the same way as in the above. The growth inhibition minimum concentrations of ricinoleic acid monoglyceride and diglycerine ricinoleic acid monoester of the present invention (synthesized in “1. Synthesis Example of ricinoleic acid monoglyceride” and “2. Synthesis Example of diglycerine ricinoleic acid monoester,” respectively) for the 9 indicator bacterial species shown in Table 2 were measured in the same way as in “3. Antimicrobial test” described above.

Series [2] in a line: Compounding property in external preparations for skin. The series is classed as physicochemical. As to the method: Hyaluronic acid, ethanol, glycerine and ricinoleic acid monoglyceride were mixed, and then purified water was added to obtain a skin lotion.
Squalane, jojoba oil, bees wax and sorbitan sesquioleate were mixed, heated to 70° C. and dissolved (this was a mixture A). On the other hand, xanthan gum, 1,3-butylene glycol, ethanol and ricinoleic acid monoglyceride were mixed at room temperature (this was a mixture B). Subsequently, the mixture A and the mixture B were mixed, heated to 60° C., and added little by little to the purified water in which the N-palm oil fatty acid acyl L-arginine ethyl-DL-pyrrolidone carboxylate salt had been added, and vigorously stirring to emulsify to obtain a milky lotion.
Squalane, stearic acid, bees wax, stearyl alcohol and ricinoleic acid monoglyceride were mixed, heated to 70° C. and dissolved. The N-palm oil fatty acid acyl L-arginine ethyl-DL-pyrrolidone carboxylate salt and the purified water were added little by little to these heated and dissolved oil-based ingredients, and these were stirred well to obtain a cream.

Series [3] has as its system L. monocytogenes(JCM7671). Description: Antimicrobial test, growth inhibition minimum concentration. The settings on record: Table 2. The series is classed as cell-based, Listeria monocytogenes. As to the method:
as §1

Series [4] has as its system B. subtile(JCM2151). The series is described as above. Type of series: cell-based, Bacillus subtilis. The settings on record: Table 2. As to the method: as §1
Series [5] has as its system Propionibacterium acnes (JCM 6425). Nature of the series: Antimicrobial test, growth inhibition minimum concentration (anaerobic). The series is classed as cell-based. The settings on record: Table 1, P. acnes(JCM6425), 37° C., 48 hours. As to the method: 0.5 mL of the previously sterilized medium (brand name: Brain Heart Infusion Liquid Medium supplied by Nihon Pharmaceutical Co., Ltd.) was added to a 96-well deep type microplate, and 0.5 mL of ricinoleic acid monoglyceride or diglycerine ricinoleic acid monoester of the present invention (synthesized in “1. Synthesis Example of ricinoleic acid monoglyceride” and “2. Synthesis Example of diglycerine ricinoleic acid monoester,” respectively) was added thereto and serially prepared so that the final concentration in the medium was 3 ppm, 6 ppm, 12 ppm, 25 ppm, 50 ppm, 100 ppm, 200 ppm and 400 ppm. 0.1 mL of a cultured bacterial medium of Propionibacterium acnes (JCM 6425) at approximately 1×10^8CFU/mL was added to this sample solution, and cultured at 37° C. under an anaerobic condition using a deoxidizer for 48 hours. The antimicrobial effect was visually determined, and the growth inhibition minimum concentration was measured. As a Comparative Example, the growth inhibition minimum concentration of 4-isopropyl-3-methylphenol known as the antimicrobial agent having a broad antimicrobial spectrum was measured in the same way as in the above.

For series [6], the system named is S. mutans(JCM5175). Nature of the series: Antimicrobial test, growth inhibition minimum concentration. The settings on record: Table 2. The series is classed as cell-based, Streptococcus mutans. As to the method:
as §1

For series [7], the system named is B. cereus(JCM2152). Described as above. The series is classed as cell-based, Bacillus cereus. Particulars: Table 2. As to the method: as §1
Series [8] deals with E. coli(JCM1649). Described as above. Type of series: cell-based, Escherichia coli. As to the method:
as §1

Series [9] has as its system Corynebacterium xerosis (JCM 1971). The series is described as above. The settings on record: C. xerosis(JCM1971). The series is classed as cell-based. As to the method:
as §1

For series [10], the system named is Staphylococcus aureus (JCM 2151). The series is described as above. Particulars: S. aureus(JCM2151). Type of series: cell-based. As to the method:
as §1

The test system is the same in series [11]. Description: Microbicidal test for Staphylococcus aureus. The settings on record: 200 ppm sample in 0.2 M phosphate buffer (pH7.0), aerobic; FIG. 1. The series is classed as cell-based. As to the method:
Ricinoleic acid monoglyceride synthesized in “1. Synthesis Example of ricinoleic acid monoglyceride” was added to a 0.2 M phosphate buffer (pH7.0) to prepare a 200 ppm sample. 0.1 mL of Staphylococcus aureus (JCM 2151) at approximately 1×10^8CFU/mL was added to 5 mL of the sample. While being kept under the aerobic condition, the bacterial sample was taken at 0, 5, 10, 30, 60 and 120 minutes after the addition, and the number of survival bacteria in the sample was counted at each retention time. Specifically, using a Brain Heart Infusion agar medium, the sample was serially diluted, cultured using a flat plate smear method at 37° C. for 48 hours, and then the number of bacteria was counted. As a comparative control, 4-isopropyl-3-methylphenol was simultaneously evaluated in the same way as in the above.

Series [12] deals with P. gingivalis(JCM8525). Description: Antimicrobial test, growth inhibition minimum concentration. The series is classed as cell-based, Porphyromonas gingivalis. Particulars: Table 2. As to the method:
as §1

The test system of series [13] is Propionibacterium acnes (JCM 6425). Nature of the series: Microbicidal test for Propionibacterium acnes. The series is classed as cell-based. Particulars: 200 ppm sample in 0.2 M phosphate buffer (pH7.0), anaerobic; FIG. 2. As to the method:
Ricinoleic acid monoglyceride synthesized in “1. Synthesis Example of ricinoleic acid monoglyceride” was added to a 0.2 M phosphate buffer (pH7.0) to prepare a 200 ppm sample. 0.1 mL of Propionibacterium acnes (JCM 6425) at approximately 1×10^8CFU/mL was added to 5 mL of the sample. While being kept under the anaerobic condition, the bacterial sample was taken at 0, 5, 10, 30, 60 and 120 minutes after the addition, and the number of survival bacteria in the sample was counted at each retention time. Specifically, using a GAM agar medium, the sample was serially diluted, cultured using the flat plate smear method at 37° C. under the anaerobic condition for 4 days, and then the number of bacteria was counted. As the comparative control, 4-isopropyl-3-methylphenol was simultaneously evaluated in the same way as in the above.

Where [14] appears, read: Table 1, 37° C., aerobic, 24 hours.

1 compound from patent US20100221197A1, “ANTIMICROBIAL AGENT AND EXTERNAL PREPARATION FOR SKIN CONTAINING THE SAME” (TAIYO CORPORATION, priority 2007, published 2010) can be followed below.

The structures appear in SMILES notation.

Take `CCCCCC[C@@H](O)C/C=C\CCCCCCCC(=O)OCC(O)CO` (stereo partly drawn) [ricinoleic acid monoglyceride]: the minimum inhibitory concentration in series [1] worked out at 25 ppm; in [3] it was 25 ppm; in series [4], 25 ppm; in series [5] it was 50 ppm; in series [6] it was 25 ppm; in series [7] it was 12.5 ppm. Also, the minimum inhibitory concentration in series [8] (Table 2, E. coli(JCM1649)) is listed as greater than 400 ppm; in series [9] (setting [14]), 25 ppm; in series [9] (Table 2), 25 ppm; in series [10] (setting [14]), 25 ppm; in [10] (Table 2), 25 ppm; in series [12], 6 ppm. Besides, the “compounding property: mixing with the other ingredients” value is “mixed very well” in series [2] (cream, 2.0% by weight) and “easily mixed” in series [2] (skin lotion, 0.5% by weight). For the same compound, in [2] (milky lotion, 1.0% by weight), the “blending property: mixing with the other ingredients” value was “immediately mixed”. The “antimicrobial activity against Escherichia coli” value in series [8] (statement in words from Table 2) is recorded as “did not exhibit antimicrobial activity”. Moreover, the “retention time for reducing the number of bacteria to 1/1000 or less” value in [11] was no more than 10 min. For the same compound, the “retention time for reducing the number of bacteria to 1/100 or less” value in [13] is no more than 5 min.
